Experimental data as given in patent US20210355104A1, “ADENOSINE RECEPTOR BINDING COMPOUNDS” (Nikang Therapeuticsm Inc., priority 2018, published 2021).
Several values for one entry are separate records, joined by “and”; a condition that tells them apart may be missing. Identical values can stand only once.

Key:
[1] = target: T1, Adenosine A2A receptor (Homo sapiens, UniProt P29274); experiment: Adenosine A2A receptor competitive binding assay (Tag-lite HTRF); conditions: Tag-lite adenosine A2A receptor ligand binding
T1 sequence (P29274 whole entry): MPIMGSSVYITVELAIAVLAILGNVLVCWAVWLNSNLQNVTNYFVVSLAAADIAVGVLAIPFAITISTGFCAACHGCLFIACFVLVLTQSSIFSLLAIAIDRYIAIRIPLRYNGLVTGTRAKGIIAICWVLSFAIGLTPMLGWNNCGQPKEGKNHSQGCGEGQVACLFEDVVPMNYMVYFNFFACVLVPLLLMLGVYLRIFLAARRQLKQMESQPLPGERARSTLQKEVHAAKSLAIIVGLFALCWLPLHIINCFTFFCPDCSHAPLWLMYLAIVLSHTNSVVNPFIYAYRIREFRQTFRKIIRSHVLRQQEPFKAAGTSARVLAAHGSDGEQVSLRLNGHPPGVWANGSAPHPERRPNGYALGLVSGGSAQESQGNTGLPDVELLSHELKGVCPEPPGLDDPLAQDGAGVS
How it was run: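 Compound displacement of a red fluorescent antagonist tracer (added at 60 nM stock) from donor-labelled, pre-transfected human A2A cells was read by HTRF after 2 h at room temperature; compound dilutions contained 0.6% DMSO.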

[2] = system: p-CREB (phosphorylated cAMP response-element binding protein) in human whole blood; experiment: p-CREB assay in human whole blood by flow cytometry (NECA stimulation, CD4 staining); format: cell-based; conditions: Homo sapiens
How it was run: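 Fresh human whole blood preincubated 1 h at room temperature with compounds (11-point 1:3 series from 30 uM) plus adenosine deaminase, then stimulated 30 min with NECA and Rolipram (10× additions of 50 uM stocks). Cells lysed/fixed, permeabilised, stained for p-CREB and CD4, read by flow cytometry.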

[3] = target: T1, Adenosine A2A receptor; experiment: cAMP assay in 293A cells stably expressing the adenosine A2A receptor (CGS21680 stimulation, HTRF); format: cell-based; design: expressed in transfected cells; host or cells: 293A cells (Invitrogen, Cat# R705-07) infected with A2A-expressing lentivirus (custom packaged by Biosettia), puromycin selected; conditions: 293A-A2AR cells, 0.1% BSA
[4] = 2 h room temperature, values separated by / are repeat determinations
[5] = values separated by / are repeat determinations
[6] = 1 uM CGS, values separated by / are repeat determinations, read-out: cAMP (nM) 0.1% BSA, 1 uM CGS

| SMILES | IC50 [1, 4] | IC50 [2, 5] | IC50 [3, 6] | IC50 ([1]; HTRF) | IC50 [2] | IC50 ([3]; 8 nM CGS, read-out: cAMP (nM) 0.1% BSA, 8 nM CGS) | IC50 ([3]; 8 nM CGS, values separated by / are repeat determinations, read-out: cAMP (nM) 0.1% BSA, 8 nM CGS) |
| --- | --- | --- | --- | --- | --- | --- | --- |
| Cc1cc(-c2c(OCCN(C)c3ccccn3)nc(N)nc2-c2ccc(F)cc2)cc(C(F)F)n1 [Example 79, 5-(2-(difluoromethyl)-6-methylpyridin-4-yl)-4-(4-fluorophenyl)-6-(2-(methyl(pyridin-2-yl)amino)ethoxy)pyrimidin-2-amine] | 0.51 nM | 11.2 nM | 1 nM | – | – | – | – |
| Cc1cc(-c2c(OCc3nccn3CCC(=O)O)nc(N)nc2-c2ccc(F)cc2)cc(C(F)F)n1 [Example 204, 3-(2-(((2-amino-5-(2-(difluoromethyl)-6-methylpyridin-4-yl)-6-(4-fluorophenyl)pyrimidin-4-yl)oxy)methyl)-1H-imidazol-1-yl)propanoic acid] | – | – | – | 13 nM | 456 nM | 24 nM | – |
| Cc1cc(-c2c(OCCN(C)c3cccc(OCCO)n3)nc(N)nc2-c2ccc(F)cc2)cc(C(F)F)n1 [Example 154, 2-((6-((2-((2-amino-5-(2-(difluoromethyl)-6-methylpyridin-4-yl)-6-(4-fluorophenyl)pyrimidin-4-yl)oxy)ethyl)(methyl)amino)pyridin-2-yl)oxy)ethan-1-ol] | 1.4 nM and 4.2 nM | 41.6 nM | 11 nM | – | – | – | 1.3 nM |
